Data reported in ChEMBL document CHEMBL4393675, “Discovery of (R)-5-((5-(1-methyl-1H-pyrazol-4-yl)-4-(methylamino)pyrimidin-2-yl)amino)-3-(piperidin-3-yloxy)picolinonitrile, a novel CHK1 inhibitor for hematologic malignancies” (Eur J Med Chem, 2019).

Tests used:
Type in all cases: ADME, organism-based
[1] = AUC (0 to t) in ICR mouse at 15 mg/kg, iv administered and measured for 1 min to 12 hrs by LC/MS/MS analysis; settings: in vivo
[2] = Half life in ICR mouse at 15 mg/kg, iv administered and measured for 1 min to 12 hrs by LC/MS/MS analysis; settings: in vivo
[3] = Cmax in ICR mouse at 15 mg/kg, iv administered and measured for 1 min to 12 hrs by LC/MS/MS analysis; set-up: dose 15 mg/kg, route intravenous; settings: in vivo
[4] = MRT in ICR mouse at 15 mg/kg, iv administered and measured for 1 min to 12 hrs by LC/MS/MS analysis; settings: in vivo
[5] = Volume of distribution at steady state in ICR mouse at 15 mg/kg, iv administered and measured for 1 min to 12 hrs by LC/MS/MS analysis; settings: in vivo, read-out: Vdss
[6] = AUC (0 to infinity) in ICR mouse at 15 mg/kg, iv administered and measured for 1 min to 12 hrs by LC/MS/MS analysis; set-up: dose 15 mg/kg, time infinity, route intravenous; settings: in vivo

CNc1nc(Nc2cnc(C#N)c(O[C@@H]3CCCNC3)c2)ncc1-c1cnn(C)c1
AUC(0-t) [1]: 363 ng·h/mL | half-life [2]: 2.23 h | Cmax [3]: 849 ng/mL | MRT [4]: 0.8 h | Vd [5]: 6.42 L/kg | AUC [6]: 370 ng·h/mL
